Test results reported in patent US8906852B2 (MethylGene Inc., priority 2010, dated 2014).

Each compound was assayed against T1, VEGFR/KDR (Homo sapiens, UniProt P35968) (assay: VEGFR/KDR kinase inhibition, DELFIA assay). Details: ATP 0.6 uM (2x Km), enzyme 5 nM.
T1 construct: made in house; host or cells: Sf9 cells (Spodoptera frugiperda), baculovirus
Assay type: biochemical
How it was run: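 DELFIA time-resolved fluorescence readout using Europium-tagged anti-phosphotyrosine antibody after EDTA stop. Kinase reaction on plate-bound poly(Glu4,Tyr) ran 10-30 min at 30° C with 5 nM enzyme and 0.6 uM ATP (2× Km), following 4 min on-ice pre-incubation with compound; IC50 over a concentration range.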

T1 sequence (P35968 806-1356): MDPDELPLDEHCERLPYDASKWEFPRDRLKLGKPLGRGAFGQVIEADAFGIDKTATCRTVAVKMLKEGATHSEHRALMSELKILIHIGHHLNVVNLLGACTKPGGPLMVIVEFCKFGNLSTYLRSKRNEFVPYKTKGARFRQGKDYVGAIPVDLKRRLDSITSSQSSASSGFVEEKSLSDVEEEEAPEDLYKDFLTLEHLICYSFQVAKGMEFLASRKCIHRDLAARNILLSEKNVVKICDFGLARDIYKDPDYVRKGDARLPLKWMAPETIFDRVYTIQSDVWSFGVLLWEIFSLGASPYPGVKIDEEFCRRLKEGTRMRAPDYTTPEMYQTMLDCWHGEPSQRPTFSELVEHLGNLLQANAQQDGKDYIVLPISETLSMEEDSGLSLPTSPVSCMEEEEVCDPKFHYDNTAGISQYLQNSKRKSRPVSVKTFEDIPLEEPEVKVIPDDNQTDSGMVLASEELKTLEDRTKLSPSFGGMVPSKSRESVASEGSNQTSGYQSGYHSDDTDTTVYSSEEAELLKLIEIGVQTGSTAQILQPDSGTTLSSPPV

Structure (SMILES)	IC50
COCCN(Cc1ccc(-c2cc3nccc(Oc4ccc(NC(=O)CC5CC5)cc4F)c3s2)nc1)C(C)=O [Compound 42, 2-cyclopropyl-N-(3-fluoro-4-(2-(5-((N-(2-methoxyethyl)-acetamido)methyl)pyridin-2-yl)thieno[3,2-b]-pyridin-7-yloxy)phenyl)-acetamide]	50 to 100 nM
CN(CCO)C1CCN(Cc2ccc(-c3cc4nccc(Oc5ccc(NC(=O)NC6CC6)cc5F)c4s3)nc2)CC1 [Compound 417]	< 50 nM
O=C(CCn1cncn1)NC1CCN(Cc2ccc(-c3cc4nccc(Oc5ccc(NC(=O)NC6CC6)cc5F)c4s3)nc2)CC1 [Compound 347]	< 50 nM
COC(=O)CC(C)N1CCN(Cc2ccc(-c3cc4nccc(Oc5ccc(NC(=O)NC6CC6)cc5F)c4s3)nc2)CC1 (stereo not drawn) [Compound 508, methyl 3-(4-((6-(7-(4-(3-cyclopropylureido)-2-fluorophenoxy)thieno[3,2-b]pyridin-2-yl)pyridin-3-yl)methyl)piperazin-1-yl)butanoate]	< 50 nM
Cn1c(C(=O)N2CCCC2)cnc1-c1cc2nccc(Oc3ccc(NC(=O)NC4CC4)cc3F)c2s1 [Compound 222, 1-cyclopropyl-3-(3-fluoro-4-(2-(1-methyl-5-(pyrrolidine-1-carbonyl)-1H-imidazol-2-yl)thieno[3,2-b]pyridin-7-yloxy)phenyl)urea]	< 50 nM
CN(C(=O)CO)C1CCN(Cc2ccc(-c3cc4nccc(Oc5ccc(NC(=O)NC6CC6)cc5F)c4s3)nc2)CC1 [Compound 413]	< 50 nM
COCCN(CCn1cnc(-c2cc3nccc(Oc4ccc(NC(=O)NC5CC5)cc4F)c3s2)c1)C(C)=O [Compound 254-A, N-(2-(4-(7-(4-(3-cyclopropylureido)-2-fluorophenoxy)-thieno[3,2-b]pyridin-2-yl)-1H-imidazol-1-yl)ethyl)-N-(2-methoxyethyl)acetamide]	< 50 nM
O=C(Nc1ccc(Oc2ccnc3cc(C4=CCNCC4)sc23)c(F)c1)NC1CC1 [Compound 271-A, 1-Cyclopropyl-3-(3-fluoro-4-(2-(1,2,3,6-tetrahydropyridin-4-yl)thieno[3,2-b]pyridin-7-yloxy)phenyl)urea]	50 to 100 nM
CN1CCN(CCNC(=O)c2cc3nccc(Oc4ccc(NC(=O)NC5CC5)cc4F)c3s2)CC1 [Compound 440]	≥ 250 nM
O=C(O)CCC(=O)N1CC=C(c2cc3nccc(Oc4ccc(NC(=O)NC5CC5)cc4F)c3s2)CC1 [Compound 273, 4-(4-(7-(4-(3-cyclopropylureido)-2-fluorophenoxy)thieno[3,2-b]pyridin-2-yl)-5,6-dihydropyridin-1(2H)-yl)-4-oxobutanoic acid]	≥ 250 nM
CN1CCN(C(=O)[C@@H]2CCCN2Cc2ccc(-c3cc4nccc(Oc5ccc(NC(=O)NC6CC6)cc5F)c4s3)nc2)CC1 [Compound 488, (S)-1-cyclopropyl-3-(3-fluoro-4-(2-(5-((2-(4-methylpiperazine-1-carbonyl)pyrrolidin-1-yl)methyl)pyridin-2-yl)thieno[3,2-b]pyridin-7-yloxy)phenyl)urea]	< 50 nM
CC(C)(O)CN1CCN(Cc2ccc(-c3cc4nccc(Oc5ccc(NC(=O)NC6CC6)cc5F)c4s3)nc2)CC1 [Compound 570]	< 50 nM
CC(=O)N[C@H]1CCN(Cc2ccc(-c3cc4nccc(Oc5ccc(NC(=O)NC6CC6)cc5F)c4s3)nc2)C1=O [Compound 44, (S)-N-(l-((6-(7-(4-(3-cyclopropylureido)-2-fluorophenoxy)thieno[3,2-b]pyridin-2-yl)pyridin-3-yl)methyl)-2-oxopyrrolidin-3-yl)acetamide]	< 50 nM
O=C(O)CC(N1CCN(Cc2ccc(-c3cc4nccc(Oc5ccc(NC(=O)NC6CC6)cc5F)c4s3)nc2)CC1)C(F)(F)F (stereo not drawn) [Compound 511, 3-(4-((6-(7-(4-(3-cyclopropylureido)-2-fluorophenoxy)thieno[3,2-b]pyridin-2-yl)pyridin-yl)methyl)piperazin-1-yl)-4,4,4-trifluorobutanoic acid]	< 50 nM
O=C(Nc1ccc(Oc2ccnc3cc(-c4ccc(C(=O)O)cn4)sc23)c(F)c1)NC1CC1 [Compound 225, 6-(7-(4-(3-Cyclopropylureido)-2-fluorophenoxy)thieno[3,2-b]pyridin-2-yl)nicotinic acid]	< 50 nM
O=C(Nc1ccc(Oc2ccnc3cc(-c4ccc(C(=O)N5CCCC(C(=O)O)C5)cn4)sc23)c(F)c1)NC1CC1 (stereo not drawn) [Compound 240, 1-(6-(7-(4-(3-cyclopropylureido)-2-fluorophenoxy)thieno[3,2-b]-pyridin-2-yl)nicotinoyl)piperidine-3-carboxylic acid]	< 50 nM
COCCN(Cc1cnc(-c2cc3nccc(Oc4ccc(NC(=O)NC5CC5)cc4F)c3s2)n1C)C(=O)NC(C)C [Compound 189]	< 50 nM
CC(C)NC(=O)Nc1ccc(Oc2ccnc3cc(-c4ccc(CN5CCCOC5=O)cn4)sc23)c(F)c1 [Compound 201, 1-(3-fluoro-4-(2-(5-((2-oxo-1,3-oxazinan-3-yl)methyl)pyridin-2-yl)thieno[3,2-b]pyridin-7-yloxy)phenyl)-3-isopropylurea]	< 50 nM
O=C(O)CCN1CCN(Cc2ccc(-c3cc4nccc(Oc5ccc(NC(=O)NC6CC6)c(F)c5F)c4s3)nc2)CC1 [Compound 172, 3-(4-((6-(7-(4-(3-cyclopropylureido)-2,3-difluorophenoxy)thieno-[3,2-b]pyridin-2-yl)pyridin-3-yl)methyl)piperazin-1-yl)propanoic acid]	< 50 nM
COCCNCCc1ccc(-c2cc3nccc(Oc4ccc(NC(=S)NC(=O)Cc5ccc(F)cc5)cc4F)c3s2)nc1 [Compound 187, N-(3-fluoro-4-(2-(5-(2-(2-methoxyethylamino)ethyl)pyridin-2-yl)thieno[3,2-b]pyridin-7-yloxy)phenylcarbamothioyl)-2-(4-fluorophenyl)acetamide]	< 50 nM
CN1CCN(Cc2ccc(-c3cc4nccc(Oc5ccc(NC(=O)NC6CC6)cc5F)c4s3)nc2)C1=O [Compound 141, 1-cyclopropyl-3-(3-fluoro-4-(2-(5-((3-methyl-2-oxoimidazolidin-1-yl)methyl)pyridin-2-yl)thieno[3,2-b]pyridin-7-yloxy)phenyl)urea]	< 50 nM
CN(C)CCNC(=O)C1CCCN(Cc2ccc(-c3cc4nccc(Oc5ccc(NC(=O)NC6CC6)cc5F)c4s3)nc2)C1 (stereo not drawn) [Compound 491, 1-((6-(7-(4-(3-cyclopropylureido)-2-fluorophenoxy)thieno[3,2-b]pyridin-2-yl)pyridin-3-yl)methyl)-N-(2-(dimethylamino)ethyl)piperidine-3-carboxamide]	< 50 nM
CC(C)NC(=O)Nc1ccc(Oc2ccnc3cc(-c4ncc(CN5CCOCC5)n4C)sc23)c(F)c1 [Compound 299, 1-(3-fluoro-4-(2-(1-methyl-5-(morpholinomethyl)-1H-imidazol-2-yl)thieno[3,2-b]pyridin-7-yloxy)phenyl)-3-isopropylurea]	< 50 nM
O=C(Nc1ccc(Oc2ccnc3cc(-c4ccc(CN5CCOCC5=O)cn4)sc23)c(F)c1)NC1CC1 [Compound 123, 1-cyclopropyl-3-(3-fluoro-4-(2-(5-((3-oxomorpholino)methyl)pyridin-2-yl)thieno[3,2-b]pyridin-7-yloxy)phenyl)urea]	< 50 nM
CCNC(=O)N1CC(OCc2ccc(-c3cc4nccc(Oc5ccc(NC(=O)NC6CC6)cc5F)c4s3)nc2)C1 [Compound 409]	< 50 nM

Further lines, results first:

IC50	Structure (SMILES)
< 50 nM	O=C(Nc1ccc(Oc2ccnc3cc(C(=O)N4CCC4)sc23)c(F)c1)NC1CC1 [Compound 446]
< 50 nM	CN1CCN(C(=O)Cn2cc(-c3cc4nccc(Oc5ccc(NC(=O)NC6CC6)cc5F)c4s3)nn2)CC1 [Compound 365]
< 50 nM	COC(=O)[C@@H]1CCCN1C(=O)c1cc2nccc(Oc3ccc(NC(=O)NC4CC4)cc3F)c2s1 [Compound 449]
< 50 nM	C=CC(=O)N(C)C1CCN(Cc2ccc(-c3cc4nccc(Oc5ccc(NC(=O)NC6CC6)cc5F)c4s3)nc2)CC1 [Compound 412]
100 to 250 nM	CCNC(=O)N(CCOC)Cc1ccc(-c2cc3nccc(Oc4ccc(NC(=O)NC5CC5)nc4)c3s2)nc1 [Compound 37, N-[3((6-(7-(6-(3-cyclopropylureido)-pyridin-3-yloxy)thieno[3,2-b]-pyridin-2-yl)pyridin-3-yl)methyl)]-N-(1-ethyl)-N-[3-(2-methoxyethyl)]urea]
< 50 nM	O=C(CO)NC1CN(Cc2ccc(-c3cc4nccc(Oc5ccc(NC(=O)NC6CC6)cc5F)c4s3)nc2)C1 [Compound 414]
< 50 nM	O=C(O)CCN1CCN(C(=O)c2ccc(-c3cc4nccc(Oc5ccc(NC(=O)NC6CC6)cc5F)c4s3)nc2)CC1 [Compound 239, 3-(4-(6-(7-(4-(3-cyclopropylureido)-2-fluorophenoxy)thieno[3,2-b]pyridin-2-yl)nicotinoyl)piperazin-1-yl)propanoic acid tetraacetate]
< 50 nM	NC1CN(Cc2ccc(-c3cc4nccc(Oc5ccc(NC(=O)NC6CC6)cc5F)c4s3)nc2)C1 [Compound 402]
< 50 nM	COCCN(CCOC)Cc1ccc(-c2cc3nccc(Oc4ccc(NC(=O)NC5CC5)cc4F)c3s2)nc1 [Compound 50, 1-(4-(2-(5-((bis(2-methoxyethyl)amino)methyl)pyridin-2-yl)thieno[3,2-b]-pyridin-7-yloxy)-3-fluorophenyl)-3-cyclopropylurea]
< 50 nM	CN(C(=O)NCC(=O)O)C1CCN(Cc2ccc(-c3cc4nccc(Oc5ccc(NC(=O)NC6CC6)cc5F)c4s3)nc2)CC1 [Compound 427]
100 to 250 nM	O=C(Nc1ccc(Oc2ccnc3cc(C(=O)N4CCC[C@@H](O)C4)sc23)c(F)c1)NC1CC1 [Compound 463, (R)-1-cyclopropyl-3-(3-fluoro-4-(2-(3-hydroxypiperidine-1-carbonyl)thieno-[3,2-b]pyridine-7-yloxy)phenyl)urea]
< 50 nM	COCCOCC(=O)N1CCN(Cc2ccc(-c3cc4nccc(Oc5ccc(NC(=O)NC6CC6)cc5F)c4s3)nc2)CC1 [Compound 589]
< 50 nM	CN(C(=O)OC(C)(C)C)C1CCN(Cc2ccc(-c3cc4nccc(Oc5ccc(NC(=O)NC6CC6)cc5F)c4s3)nc2)CC1 [342-A]
< 50 nM	O=C(CO)NC1CCN(Cc2ccc(-c3cc4nccc(Oc5ccc(NC(=O)NC6CC6)cc5F)c4s3)nc2)CC1 [Compound 346]
